Consider 1 compound from patent US20070142270A1, “Aryl Sulfonic Pyridoxines as Antiplatelet Agents” (priority 2004, published 2007).

Experiment [1] deals with platelets (platelet rich plasma). As to the kind of experiment: Inhibition of platelet aggregation in platelet rich plasma (Chrono-log aggregometer). The experiment is classed as cell-based. To be noted: compound concentration 500 μM, human PRP.
Another experiment has as its target T1, human Factor Xa (fXa) (Homo sapiens, UniProt P00742).
T1 construct: purchased Haematologic Technologies Inc. (Essex Junction, Vt.)
The experiment in a line: Inhibition of serine protease activity, factor Xa, chromogenic substrate Pefachrome Xa. The experiment is classed as biochemical. To be noted: 2 nM human Factor Xa, 300 μM substrate, pH 7.5. On the procedure: (§1) The enzymes factor Xa (fXa), thrombin (factor IIa or fIIa), and trypsin were purchased from Haematologic Technologies Inc. (Essex Junction, Vt.). The substrates Pefachromes Xa, Th, and Try were purchased from Centerchem Inc. (Stamford, Conn.). Varying concentrations of the sulfonamide compounds were incubated for 30 min at room temperature with purified activated human enzyme in the appropriate buffer. Various concentrations of the corresponding synthetic substrate were added, and activity was measured at 37° C. by monitoring absorbance at 405 nm for 15 min with a Flurostar Optima plate reader. […] For controls, the appropriate percentage of solvent was used instead of test compound. The specific activity (ΔA405/min/nM protein), and the percent activity was calculated for each data point. The IC50 was calculated by linear regression of log[test compound] vs. % activity. The enzyme activity of the sulfonamide compound was determined using the Enzyme Kinetics Module of Sigmaplot 8.0 (SPSS Inc.)
The final concentration of human Factor Xa was 2 nM in a Tris/NaCl buffer (pH 7.5) containing 0.25% (w/v) polyethylene glycol (MW 8000). The substrate employed was Pefachrome Xa.

A further experiment concerns human trypsin. The experiment in a line: Inhibition of serine protease activity, trypsin, chromogenic substrate Pefachrome Try. The format is biochemical. To be noted: 2 nM human trypsin, 300 μM substrate, pH 7.5. The protocol:
as §1
The final concentration of human trypsin was 2 nM in a Tris/NaCl buffer (pH 7.5) containing 0.25% (w/v) bovine serum albumin and 20 μM CaCl2. The substrate used was Pefachrome Try.

In experiment [2] the target is T2, human thrombin (factor IIa, fIIa) (Homo sapiens, UniProt P00734).
T2 construct: purchased Haematologic Technologies Inc. (Essex Junction, Vt.)
The experiment in a line: Inhibition of serine protease activity, thrombin, chromogenic substrate Pefachrome Th. The experiment is classed as biochemical. To be noted: 2 nM human thrombin, 300 μM substrate, pH 8.3. On the procedure:
as §1
The final concentration of human thrombin was 2 nM in a Tris/NaCl buffer (pH 8.3) containing 0.125% (w/v) bovine serum albumin. The substrate used was Pefachrome Th.

Experiment [3] relates to platelets (platelet rich plasma). As to the kind of experiment: Inhibition of platelet aggregation in platelet rich plasma (Chrono-log aggregometer). The settings on record: agonist collagen 1 μg/mL, compound concentration 500 μM, human PRP, read-out: % Reduction in Aggregation, Collagen (1 μg/mL). The format is cell-based. The protocol:
Platelet poor plasma (PPP) was obtained by centrifuging the remainder of the sample after the platelets were removed at 800×g for about 10 minutes. The PRP was adjusted to a count of 280×10^9/L using a mixture of PRP and PPP. The platelets (200 μL) were incubated with the test compounds (25 μL) adjusted to various concentrations ([…]) for about 30 minutes at room temperature (approximate final platelet count in the incubation mixture of 250×10^9/L). The samples were incubated for about 3 minutes at about 37° C., and then transferred to the mixing wells of a Chrono-log 4 channel aggregometer (Chrono-log Corp., Havertown, Pa.). After baselines were established, the agonist (25 μL of 40 μM ADP (Sigma, St. Louis, Mo.) or 25 μL of 50 μg/mL and 10 μg/mL collagen (Helena Laboratories, Beaumont, Tex.) or 25 μL of 120 μM thrombin receptor activating peptide (TRAP) (Sigma)) was then added. Aggregation was monitored for 5 minutes at 37° C. with stirring (1000 rpm). The amplitude and slope of each tracing were calculated to determine the amount of aggregation. Control samples were performed using only solvent. The % reduction in aggregation was calculated for each sample compared to the proper solvent control.

Structures are written as SMILES. Like-named read-outs stand apart in the source and are kept apart here.

Usually IC50 stands for the midpoint of a concentration-inhibition curve.

T1 sequence (P00742 235-488 limits assumed): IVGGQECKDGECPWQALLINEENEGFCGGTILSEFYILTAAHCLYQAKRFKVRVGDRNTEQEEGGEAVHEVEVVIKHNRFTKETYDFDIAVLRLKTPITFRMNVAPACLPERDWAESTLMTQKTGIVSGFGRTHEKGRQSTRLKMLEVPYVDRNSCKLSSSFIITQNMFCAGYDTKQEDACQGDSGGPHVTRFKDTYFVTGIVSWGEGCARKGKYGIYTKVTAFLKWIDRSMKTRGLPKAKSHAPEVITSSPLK
T1 sequence (P00742 41-179 partner limits assumed): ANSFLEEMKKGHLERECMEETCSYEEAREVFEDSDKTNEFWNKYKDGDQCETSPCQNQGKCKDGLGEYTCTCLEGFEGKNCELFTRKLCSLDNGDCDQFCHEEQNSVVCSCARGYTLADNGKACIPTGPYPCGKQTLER

Consider `Cc1ncc(CNc2ccc(C(=N)N)cc2)c(CO)c1O` [Compound 33, reference compound], for which the inhibition at 500 µM worked out at 4% in experiment [1] (agonist ADP 4 μM, read-out: % Reduction in Aggregation, ADP (4 μM)); 1% in experiment [1] (agonist TRAP 12 μM, read-out: % Reduction in Aggregation, TRAP (12 μM)); 15% in experiment [1] (agonist collagen 5 μg/mL, read-out: % Reduction in Aggregation, Collagen (5 μg/mL)); 5% in experiment [3]. The IC50 at human Factor Xa (fXa) was found to be 105 µM; with human trypsin it was 18 µM; in experiment [2], 300 µM.
